Starred links: 1 amine or outer side, 2 acyl side, 3 side chain; linkers in the order of their positions; H or OH if unused. Positions of bridges follow the written chain, without caps; N, C: chain ends. Non-standard residues stand in square brackets, D forms with d. Residues, ends and D or L forms follow the SMILES beside them. ξ: configuration not given here. *: point of attachment. εLys(α-Octadecanedioyl) = O=C(O)CCCCCCCCCCCCCCCCC(=O)N[C@@H](CCCCN*)C(=O)O; X6 = O=C(O)CCCCCCCCCCCCCCCCC(=O)N[C@@H](CCC(=O)NCCCOCCOCCOCCCN*)C(=O)O; X4 = O=C(O)CCCCCCCCCCCCCCCCC(=O)N[C@@H](CC(=O)NCCCOCCOCCOCCCN*)C(=O)O; X18 = O=C(O)CCCCCCCCCCCCCCC(=O)N[C@@H](CC(=O)NCCCOCCOCCOCCCN*)C(=O)O; Trp(1-CH2COOH) = N[C@@H](Cc1cn(CC(=O)O)c2ccccc12)C(=O)O; X24 = O=C(C[C@@H](Cc1ccc(O)cc1)C(=O)[*:1])C[*:2]; Phe(4-F) = N[C@@H](Cc1ccc(F)cc1)C(=O)O; d(cisHyp) = O=C(O)[C@H]1C[C@@H](O)CN1; Bta = N[C@@H](Cc1csc2ccccc12)C(=O)O; PEG6 = NCCOCCOCCOCCOCCOCCOCCC(=O)O; Aha = [N-]=[N+]=NCC[C@H](N)C(=O)O; Hyp = O=C(O)[C@@H]1C[C@@H](O)CN1; Myristoyl = CCCCCCCCCCCCCC(=O)*; dHyp = O=C(O)[C@H]1C[C@H](O)CN1; NMeNle = CCCC[C@H](NC)C(=O)O; Pip = O=C(O)[C@@H]1CCCCN1; NMeA = CN[C@@H](C)C(=O)O; Pra = C#CC[C@H](N)C(=O)O; Aun = NCCCCCCCCCCC(=O)O; Dab = NCC[C@H](N)C(=O)O; Dap = NC[C@H](N)C(=O)O; ξD = NC(CC(=O)O)C(=O)O
Biological target: T1, PD-L1 (Homo sapiens, UniProt Q9NZQ7)
T1 construct: hPDL1(19-239)-TVMV-His; made in house; host or cells: HEK293T
Experiment: PD-1/PD-L1 Homogenous Time-Resolved Fluorescence (HTRF) binding assay (PD-1-Ig/PD-L1-His)
Settings: inhibition of PD-1-Ig binding to PD-L1-TVMV-His; value given as number; read-out: HTRF IC50
Summary of the method: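 HTRF competition in dPBS with 0.1% BSA and 0.05% Tween-20: 20 nM PD-1-Ig added after 15 min compound pre-incubation with 10 nM PD-L1-His, then another 15 min. Signal (665/620 nm) after 30 min with APC anti-His (20 nM) and Eu anti-Ig (1 nM).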

T1 sequence (Q9NZQ7 with tags, fused parts or gaps): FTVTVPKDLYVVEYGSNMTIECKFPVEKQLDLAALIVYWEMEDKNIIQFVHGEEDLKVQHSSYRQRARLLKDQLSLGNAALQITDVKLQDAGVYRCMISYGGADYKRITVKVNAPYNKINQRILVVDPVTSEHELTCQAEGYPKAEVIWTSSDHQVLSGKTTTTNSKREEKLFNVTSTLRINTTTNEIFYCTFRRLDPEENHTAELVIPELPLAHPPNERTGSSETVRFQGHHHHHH

Compound | IC50
CCCC[C@H]1C(=O)N(C)[C@@H](CCCC)C(=O)N[C@@H](CC(C)C)C(=O)N[C@H](C(=O)NCC(=O)N[C@@H](Cc2cn(CCOCCOCCOCCOCCOCCOCCOCCOCCOCCOCCOCCNC(=O)C[C@H](NC(=O)CCCCCCCCCCCCCCCCC(=O)O)C(=O)O)nn2)C(=O)O)CSCC(=O)N[C@@H](Cc2ccc(O)cc2)C(=O)N(C)[C@@H](C)C(=O)N[C@@H](CC(N)=O)C(=O)N2CCC[C@H]2C(=O)N[C@@H](CN)C(=O)N[C@@H](CC(C)C)C(=O)N2C[C@H](O)C[C@H]2C(=O)N[C@@H](Cc2c[nH]c3ccccc23)C(=O)N[C@@H](CCN)C(=O)N[C@@H](Cc2cn(CC(=O)O)c3ccccc23)C(=O)N1C [Example 14103] | 14 nM

Same assay, conditions: inhibition of PD-1-Ig binding to PD-L1-TVMV-His; value given as range class; read-out: HTRF IC50

Compound | IC50
CCCC[C@H]1C(=O)N(C)[C@@H](CCCC)C(=O)N[C@@H](CC(C)C)C(=O)N[C@H](C(=O)NCC(=O)N[C@@H](CCC(=O)O)C(=O)NCCCOCCOCCOCCCNC(=O)CC[C@H](NC(=O)CCCCCCCCCCCCCCCCC(=O)O)C(=O)O)CSCC(=O)N[C@@H](Cc2ccc(F)cc2)C(=O)N2CCCC[C@H]2C(=O)N[C@@H](CC(=O)O)C(=O)N2CCC[C@H]2C(=O)N[C@@H](CN)C(=O)N[C@@H](CCC(=O)O)C(=O)N2C[C@H](O)C[C@H]2C(=O)N[C@@H](Cc2c[nH]c3ccccc23)C(=O)N[C@@H](CCN)C(=O)N[C@@H](Cc2cn(CC(=O)O)c3ccccc23)C(=O)N1C [Example 11265] ({CH2CO}-[Phe(4-F)][Pip]DP[Dap]E[Hyp]W[Dab][Trp(1-CH2COOH)][NMeNle][NMeNle]LCGE-X6; thioether N-14) | 10 to 99 nM
CCCC[C@H]1C(=O)N(C)[C@@H](CCCC)C(=O)N[C@@H](CCC(=O)O)C(=O)N[C@H](C(=O)NCC(=O)N[C@@H](Cc2cn(CC[C@H](NC(=O)CCCCCCCCCCCCCCCCC(=O)O)C(=O)O)nn2)C(=O)O)CSCC(=O)N[C@@H](Cc2ccc(O)cc2)C(=O)N(C)[C@@H](C)C(=O)N[C@@H](CC(=O)O)C(=O)N2CCC[C@H]2C(=O)N[C@@H](CN)C(=O)N[C@@H](CC(C)C)C(=O)N2C[C@H](O)C[C@H]2C(=O)N[C@@H](Cc2c[nH]c3ccccc23)C(=O)N[C@@H](CCN)C(=O)N[C@@H](Cc2cn(CC(=O)O)c3ccccc23)C(=O)N1C [Example 13126] | 10 to 99 nM
CCCC[C@H]1C(=O)N(C)[C@@H](CCCC)C(=O)N[C@@H](CCCNC(=N)N)C(=O)N[C@H](C(=O)NCC(=O)N[C@@H](CCN=[N+]=[N-])C(N)=O)CSCC(=O)N[C@@H](Cc2ccc(O)cc2)C(=O)N(C)[C@@H](C)C(=O)N[C@@H](CC(N)=O)C(=O)N2CCC[C@H]2C(=O)N[C@@H](CN)C(=O)N[C@@H](CC(C)C)C(=O)N2C[C@H](O)C[C@H]2C(=O)N[C@@H](Cc2c[nH]c3ccccc23)C(=O)N[C@@H](CO)C(=O)N[C@@H](Cc2csc3ccccc23)C(=O)N1C [INT 1300B] ({CH2CO}-Y[NMeA]NP[Dap]L[Hyp]WS[Bta][NMeNle][NMeNle]RCG[Aha]-NH2; thioether N-14) | 0.3 to 9.9 nM
CCCC[C@H]1C(=O)N(C)[C@@H](CCCC)C(=O)N[C@@H](CCC(=O)O)C(=O)N[C@H](C(=O)NCC(=O)N[C@@H](Cc2cn(CC[C@H](NC(=O)CCCCCCCCCCCCCCC(=O)O)C(=O)O)nn2)C(=O)N[C@@H](CC(=O)O)C(N)=O)CSCC(=O)N[C@@H](Cc2ccc(O)cc2)C(=O)N(C)[C@@H](C)C(=O)N[C@@H](CC(=O)O)C(=O)N2CCC[C@H]2C(=O)N[C@@H](Cc2c[nH]cn2)C(=O)N[C@@H](CCCCN)C(=O)N2C[C@H](O)C[C@H]2C(=O)N[C@@H](Cc2c[nH]c3ccccc23)C(=O)N[C@@H](CCCCN)C(=O)N[C@@H](Cc2cn(CC(=O)O)c3ccccc23)C(=O)N1C [Example 14071] | 10 to 99 nM
CCCC[C@H]1C(=O)N(C)[C@@H](CCCC)C(=O)N[C@@H](CC(C)C)C(=O)N[C@H](C(=O)NCC(=O)N[C@@H](Cc2cn(CCCNC(=O)CCCCCCCCCCCCCCCCC(=O)O)nn2)C(=O)O)CSCC(=O)N[C@@H](Cc2ccc(O)cc2)C(=O)N(C)[C@@H](C)C(=O)N[C@@H](CC(N)=O)C(=O)N2CCC[C@H]2C(=O)N[C@@H](CN)C(=O)N[C@@H](CC(C)C)C(=O)N2C[C@H](O)C[C@H]2C(=O)N[C@@H](Cc2c[nH]c3ccccc23)C(=O)N[C@@H](CCN)C(=O)N[C@@H](Cc2cn(CC(=O)O)c3ccccc23)C(=O)N1C [Example 14126] | 0.3 to 9.9 nM
CCCC[C@H]1C(=O)N(C)[C@@H](CCCC)C(=O)N[C@@H](CC(C)C)C(=O)N[C@@H](C(=O)NCC(=O)N[C@@H](CC(=O)O)C(=O)NCCCOCCOCCOCCCNC(=O)C[C@H](NC(=O)CCCCCCCCCCCCCCC(=O)O)C(=O)O)CSCC(=O)N[C@@H](Cc2ccc(O)cc2)C(=O)N(C)[C@@H](C)C(=O)N[C@@H](CC(N)=O)C(=O)N2CCC[C@@H]2C(=O)N[C@@H](CN)C(=O)N[C@@H](CC(C)C)C(=O)N2C[C@@H](O)C[C@@H]2C(=O)N[C@@H](Cc2c[nH]c3ccccc23)C(=O)N[C@@H](CCN)C(=O)N[C@@H](Cc2cn(CC(=O)O)c3ccccc23)C(=O)N1C [Example 11238] ({CH2CO}-Y[NMeA]N[dP][Dap]L[dHyp]W[Dab][Trp(1-CH2COOH)][NMeNle][NMeNle]L[dC]GD-X18; thioether N-14) | 0.3 to 9.9 nM
CCCC[C@H]1C(=O)N(C)[C@@H](CCCC)C(=O)N[C@@H](CC(C)C)C(=O)N[C@H](C(=O)NCCCC[C@H](NC(=O)CCCCCCCCCCCCCCCCC(=O)O)C(=O)O)CSCC(=O)N[C@@H](Cc2ccc(O)cc2)C(=O)N(C)[C@@H](C)C(=O)N[C@@H](CC(N)=O)C(=O)N2CCC[C@H]2C(=O)N[C@@H](CN)C(=O)N[C@@H](CC(C)C)C(=O)N2C[C@H](O)C[C@@H]2C(=O)N[C@@H](Cc2c[nH]c3ccccc23)C(=O)N[C@@H](CCN)C(=O)N[C@@H](Cc2cn(CC(=O)O)c3ccccc23)C(=O)N1C [Example 11143] ({CH2CO}-Y[NMeA]NP[Dap]L[d(cisHyp)]W[Dab][Trp(1-CH2COOH)][NMeNle][NMeNle]LC-{εLys(α-Octadecanedioyl)}; thioether N-14) | 0.3 to 9.9 nM
C#CC[C@H](NC(=O)CNC(=O)[C@@H]1CSCC(=O)N[C@@H](Cc2ccc(O)cc2)C(=O)N(C)[C@@H](C)C(=O)N[C@@H](CC(N)=O)C(=O)N2CCC[C@H]2C(=O)N[C@@H](CN)C(=O)N[C@@H](CC(C)C)C(=O)N2C[C@H](O)C[C@H]2C(=O)N[C@@H](Cc2c[nH]c3ccccc23)C(=O)N[C@@H](CO)C(=O)N[C@@H](Cc2cn(CC(=O)O)c3ccccc23)C(=O)N(C)[C@@H](CCCC)C(=O)N(C)[C@@H](CCCC)C(=O)N[C@@H](CC(C)C)C(=O)N1)C(N)=O [INT 1300X] ({CH2CO}-Y[NMeA]NP[Dap]L[Hyp]WS[Trp(1-CH2COOH)][NMeNle][NMeNle]LCG[Pra]-NH2; thioether N-14) | 10 to 99 nM
CCCC[C@H]1C(=O)N(C)[C@@H](CCCC)C(=O)N[C@@H](CCCNC(=N)N)C(=O)N[C@H](C(=O)NCC(=O)NCC(=O)NCCCCCCCCCCC(=O)O)CSCC(=O)N[C@@H](Cc2ccc(O)cc2)C(=O)N(C)[C@@H](C)C(=O)N[C@@H](CC(=O)O)C(=O)N2CCC[C@H]2C(=O)N[C@@H](Cc2cnc[nH]2)C(=O)N[C@@H](CC(C)C)C(=O)N2C[C@H](O)C[C@H]2C(=O)N[C@@H](Cc2c[nH]c3ccccc23)C(=O)N[C@@H](CO)C(=O)N[C@@H](Cc2c[nH]c3ccccc23)C(=O)N1C [Example 11071] ({CH2CO}-Y[NMeA]DPHL[Hyp]WSW[NMeNle][NMeNle]RCGG[Aun]-OH; thioether N-14) | 0.3 to 9.9 nM
CCCCCCCCCCCCCC(=O)NCCCC[C@H](NC(=O)C(CC(=O)O)NC(=O)CCOCCOCCOCCOCCOCCOCCNC(=O)CNC(=O)[C@@H]1CSCC(=O)C[C@@H](Cc2ccc(O)cc2)C(=O)N(C)[C@@H](C)C(=O)N[C@@H](CC(=O)O)C(=O)N2CCC[C@H]2C(=O)N[C@@H](Cc2cnc[nH]2)C(=O)N[C@@H](CC(C)C)C(=O)N2C[C@H](O)C[C@H]2C(=O)N[C@@H](Cc2c[nH]c3ccccc23)C(=O)N[C@@H](CO)C(=O)N[C@@H](Cc2c[nH]c3ccccc23)C(=O)N(C)[C@@H](CCCC)C(=O)N(C)[C@@H](CCCC)C(=O)N[C@@H](CCCNC(=N)N)C(=O)N1)C(N)=O (stereo partly shown) [Example 11013] ([NMeA]DPHL[Hyp]WSW[NMeNle][NMeNle]RCG[PEG6][ξD]K(Myristoyl)-NH2; linker N-13 via X24) | 10 to 99 nM
CCCC[C@H]1C(=O)N(C)[C@@H](CCCC)C(=O)N[C@@H](CC(C)C)C(=O)N[C@H](C(=O)NCC(=O)N[C@@H](CCC(=O)NCCCOCCOCCOCCCNC(=O)C[C@H](NC(=O)CCCCCCCCCCCCCCCCC(=O)O)C(=O)O)C(=O)O)CSCC(=O)N[C@@H](Cc2ccc(O)cc2)C(=O)N(C)[C@@H](C)C(=O)N[C@@H](CC(N)=O)C(=O)N2CCC[C@@H]2C(=O)N[C@@H](CN)C(=O)N[C@@H](CC(C)C)C(=O)N2C[C@@H](O)C[C@@H]2C(=O)N[C@@H](Cc2c[nH]c3ccccc23)C(=O)N[C@@H](CCN)C(=O)N[C@@H](Cc2cn(CC(=O)O)c3ccccc23)C(=O)N1C [Example 11234] ({CH2CO}-Y[NMeA]N[dP][Dap]L[dHyp]W[Dab][Trp(1-CH2COOH)][NMeNle][NMeNle]LCGE(X4)-OH; thioether N-14) | 0.3 to 9.9 nM
CCCC[C@H]1C(=O)N(C)[C@@H](CCCC)C(=O)N[C@@H](CC(C)C)C(=O)N[C@H](C(=O)NCCCOCCOCCOCCCNC(=O)C[C@H](NC(=O)CCCCCCCCCCCCCCCCC(=O)O)C(=O)O)CSCC(=O)N[C@@H](Cc2ccc(O)cc2)C(=O)N(C)[C@@H](C)C(=O)N[C@@H](CC(N)=O)C(=O)N2CCC[C@H]2C(=O)N[C@@H](CN)C(=O)N[C@@H](CC(C)C)C(=O)N2C[C@H](O)C[C@H]2C(=O)N[C@@H](Cc2c[nH]c3ccccc23)C(=O)N[C@@H](CCN)C(=O)N[C@@H](Cc2cn(CC(=O)O)c3ccccc23)C(=O)N1C [Example 11258] ({CH2CO}-Y[NMeA]NP[Dap]L[Hyp]W[Dab][Trp(1-CH2COOH)][NMeNle][NMeNle]LC-X4; thioether N-14) | 10 to 99 nM
